{"source": "patent US20070009535A1", "about": "(priority 2005, published 2007)", "origin": "cited, not measured here", "conditions": "several oncolytics tested in preclinical models", "data": [{"smiles": "O[C@@H](COc1cccc2ncccc12)CN1CCN([C@@H]2c3ccccc3[C@@H]3[C@H](c4ccccc42)C3(F)F)CC1", "note": "[zosuquidar]", "values": [{"measurement": "pharmacokinetic interactions with oncolytics", "value": "minimal pharmacokinetic (PK) interactions"}]}]}
